ChEMBL document CHEMBL5236544, “Furazans in Medicinal Chemistry” (J Med Chem, 2021)

What was measured:
HL-60 = experiment: Antiproliferative activity against human HL-60 cells assessed as inhibition of cell proliferation incubated for 24 hrs by MTT assay; assay type: functional, cell-based; conditions: HL-60, 24 h
HCT-116 = experiment: Antiproliferative activity against human HCT-116 cells assessed as inhibition of cell proliferation incubated for 24 hrs by MTT assay; assay type: functional, cell-based; conditions: HCT-116, 24 h
A549 = experiment: Antiproliferative activity against human A549 cells assessed as inhibition of cell proliferation incubated for 24 hrs by MTT assay; assay type: functional, cell-based; conditions: A549, 24 h
[1] = Inhibition of recombinant MAPK p38 (unknown origin) assessed as inhibition of MEF2A phosphorylation incubated for 5 mins by SDS-PAGE method; design: species or system Homo sapiens
SW480 = experiment: cells; conditions: Homo sapiens, SW480, 24 h
Description: Antiproliferative activity against human SW480 cells assessed as inhibition of cell proliferation incubated for 24 hrs by MTT assay

[2] = Drug concentration in ipsilateral striatum of malonate induced huntington disease rat measured after 6 hrs by LC/MS-MS analysis; assay type: ADME, tissue-based; conditions: read-out: Ct
Caspase-3 = Caspase-3 (Homo sapiens, UniProt P42574); experiment: Inhibition of caspase-3 (unknown origin)
Chain of Caspase-3 (P42574 29-175 limits assumed): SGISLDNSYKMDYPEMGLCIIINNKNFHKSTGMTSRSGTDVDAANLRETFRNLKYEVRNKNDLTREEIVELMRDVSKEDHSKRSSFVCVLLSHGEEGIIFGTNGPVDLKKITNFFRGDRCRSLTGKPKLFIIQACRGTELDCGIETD
Chain of Caspase-3 (P42574 176-277 limits assumed): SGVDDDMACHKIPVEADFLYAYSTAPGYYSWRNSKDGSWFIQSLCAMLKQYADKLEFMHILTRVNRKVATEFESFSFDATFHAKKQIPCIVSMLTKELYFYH

[3] = Half life in Malonate induced Huntington disease rat; assay type: ADME; conditions: in vivo
[4] = Cmax in Malonate induced Huntington disease […] model at 1.5 nmol administered intra striatal measured for 1 hr by LC/MS-MS analysis; assay type: ADME; design: time 1 hrs, dose 1.5 nmol; conditions: in vivo
NT2 = experiment: Inhibition of camptothecin induced apoptosis in human NT2 cells incubated for 5 hrs in presence of camptothecin by ELISA method; assay type: functional, cell-based; conditions: NT2, 5 h
Caspase-1 = Caspase-1 (Homo sapiens, UniProt P29466); experiment: Inhibition of caspase-1 (unknown origin)
Chain of Caspase-1 (P29466 120-297 limits assumed): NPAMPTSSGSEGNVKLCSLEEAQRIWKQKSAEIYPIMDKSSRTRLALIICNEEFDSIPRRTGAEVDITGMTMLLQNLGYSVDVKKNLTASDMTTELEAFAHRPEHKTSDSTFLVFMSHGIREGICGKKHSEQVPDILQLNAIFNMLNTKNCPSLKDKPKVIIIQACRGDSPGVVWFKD
Chain of Caspase-1 (P29466 317-404 limits assumed): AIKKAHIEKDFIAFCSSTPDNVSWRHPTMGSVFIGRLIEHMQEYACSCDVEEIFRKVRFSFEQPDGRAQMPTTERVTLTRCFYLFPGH

Caspase-7 = Caspase-7 (Homo sapiens, UniProt P55210); experiment: Inhibition of caspase-7 (unknown origin)
Chain of Caspase-7 (P55210 24-198 limits assumed): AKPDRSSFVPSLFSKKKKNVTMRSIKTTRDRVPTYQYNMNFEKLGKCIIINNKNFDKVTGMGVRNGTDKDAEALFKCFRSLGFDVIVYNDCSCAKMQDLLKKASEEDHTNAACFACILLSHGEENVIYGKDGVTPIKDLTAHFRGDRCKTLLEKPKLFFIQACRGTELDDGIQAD
Chain of Caspase-7 (P55210 207-303 limits assumed): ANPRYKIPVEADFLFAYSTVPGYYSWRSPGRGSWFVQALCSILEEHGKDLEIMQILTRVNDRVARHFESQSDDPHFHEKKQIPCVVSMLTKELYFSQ

Caspase-8 = Caspase-8 (Homo sapiens, UniProt Q14790); experiment: Inhibition of caspase-8 (unknown origin)
Chain of Caspase-8 (Q14790 217-374 limits assumed): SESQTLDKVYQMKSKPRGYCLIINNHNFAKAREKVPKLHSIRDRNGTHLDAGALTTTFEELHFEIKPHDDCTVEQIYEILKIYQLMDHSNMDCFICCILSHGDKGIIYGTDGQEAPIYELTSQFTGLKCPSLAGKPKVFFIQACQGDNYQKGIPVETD
Chain of Caspase-8 (Q14790 385-479 limits assumed): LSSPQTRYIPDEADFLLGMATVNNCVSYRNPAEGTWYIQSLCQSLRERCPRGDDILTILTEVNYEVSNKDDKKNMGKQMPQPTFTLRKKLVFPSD

[5] = Drug concentration in ipsilateral striatum of malonate induced huntington disease rat measured after 24 hrs by LC/MS-MS analysis; assay type: ADME, tissue-based; conditions: read-out: Ct
[6] = Inhibition of HIF (unknown origin); design: species or system Homo sapiens
[7] = Lipophilicity, log D of compound; assay type: physicochemical; conditions: octanol/water
Canis familiaris [8] = experiment: Cardioprotective activity in dogs assessed as reduction in aortic pressure at 5.0 ug/kg, iv relative to control; assay type: functional, Canis lupus familiaris; design: scale not given: the % may be the effect or the level left
Canis familiaris [9] = experiment: Cardioprotective activity in dogs assessed as reduction in aortic pressure at […], iv relative to control; assay type: functional, Canis lupus familiaris; design: scale not given: the % may be the effect or the level left
Canis familiaris [10] = experiment: Cardioprotective activity in dogs assessed as increasing in coronary blood flow at […], iv relative to control; assay type: functional, Canis lupus familiaris
Canis familiaris [11] = experiment: Cardioprotective activity in dogs assessed as increasing in coronary blood flow at 5.0 ug/kg, iv relative to control; assay type: functional, Canis lupus familiaris; conditions: dose 5 µg/kg
HeLa [12] = experiment: Antitumor activity against human HeLa cells xenografted in mouse model assessed as reduction in tumor growth at 100 mg/kg bid relative to control; assay type: functional; design: scale not given: the % may be the effect or the level left
[13] = Half life in rat, iv; assay type: ADME; conditions: in vivo
[14] = Inhibition of LPS induced TNF-alpha secretion in human THP-1 cells pretreated with LPS for 1 hr followed by compound addition and measured after 3 hrs by ELISA method; assay type: functional, cell-based
[15] = Inhibition of MAPK p38 (unknown origin); design: species or system Homo sapiens
HeLa [16] = experiment: Antitumor activity against human HeLa cells xenografted in mouse model assessed as reduction in tumor growth at 75 mg/kg bid relative to control; assay type: functional; design: scale not given: the % may be the effect or the level left
[17] = Half life in mouse; assay type: ADME, organism-based; conditions: in vivo
[18] = Oral bioavailability in rat at 3 mg/kg relative to control; assay type: ADME, organism-based; conditions: in vivo
HeLa [19] = experiment: Antitumor activity against human HeLa cells xenografted in mouse assessed as reduction in tumor growth at 30 mg/kg bid relative to control; assay type: functional; design: scale not given: the % may be the effect or the level left
[20] = Stability in rat assessed as intrinsic clearance; assay type: ADME; conditions: CLH
Rattus norvegicus [21] = species: Rattus norvegicus; experiment: Antihypertensive activity in spontaneously hypertensive rat model assessed as reduction in systemic arterial pressure; assay type: functional
Rattus norvegicus [22] = experiment: Antihypertensive activity in spontaneously hypertensive rat model assessed as change in blood pressure at 10 mg/kg, po measured after 6 hrs; assay type: functional
Rattus norvegicus [23] = experiment: Antihypertensive activity in spontaneously hypertensive rat model assessed as change in heart rate at 1 mmol/Kg, po measured after 3 hrs; assay type: functional
Rattus norvegicus [24] = experiment: Antihypertensive activity in spontaneously hypertensive rat model assessed as change in heart rate at 1 mmol/Kg, po measured after 10 hrs; assay type: functional
Rattus norvegicus [25] = experiment: Antihypertensive activity in spontaneously hypertensive rat model assessed as change in heart rate at 10 mg/Kg, po measured after 6 hrs; assay type: functional
Rattus norvegicus [26] = experiment: Antihypertensive activity in spontaneously hypertensive rat model assessed as change in blood pressure at 10 mg/kg, po measured after 10 hrs; assay type: functional
Rattus norvegicus [27] = species: Rattus norvegicus; experiment: Antihypertensive activity in spontaneously hypertensive rat model assessed as reduction in pulmonary arterial pressure; assay type: functional
Rattus norvegicus [28] = experiment: Antihypertensive activity in spontaneously hypertensive rat model assessed as change in blood pressure at 10 mg/kg, po measured after 3 hrs; assay type: functional
Rattus norvegicus [29] = experiment: Antihypertensive activity in spontaneously hypertensive rat model assessed as change in blood pressure at 3 mg/kg, po measured after 3 hrs; assay type: functional
HASMC = experiment: Antiproliferative activity against human HASMC cells assessed as inhibition of cell proliferation measured after 24 hrs by MTT assay; assay type: functional, cell-based
Rattus norvegicus [30] = experiment: Antihypertensive activity in spontaneously hypertensive rat model assessed as change in blood pressure at 3 mg/kg, po measured after 6 hrs; assay type: functional
Rattus norvegicus [31] = experiment: Antihypertensive activity in spontaneously hypertensive rat model assessed as change in blood pressure at 3 mg/kg, po measured after 10 hrs; assay type: functional
[32] = molecular target: Tumor necrosis factor (Homo sapiens) (UniProt P01375); experiment: Inhibition of TNF-alpha secretion in human THP-1 cells; design: concentration or dose not given beside the values; conditions: concentration not given here
Chain of Tumor necrosis factor (Homo sapiens) (P01375 whole entry, looked up): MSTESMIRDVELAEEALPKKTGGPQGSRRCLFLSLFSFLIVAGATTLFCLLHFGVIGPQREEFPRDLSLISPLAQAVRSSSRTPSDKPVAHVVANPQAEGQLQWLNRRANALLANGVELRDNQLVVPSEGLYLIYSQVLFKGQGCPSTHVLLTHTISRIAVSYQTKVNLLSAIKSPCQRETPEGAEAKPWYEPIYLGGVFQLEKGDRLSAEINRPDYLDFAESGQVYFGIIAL

[33] = Neuroprotective activity against neurons (unknown origin) assessed as rescue by measuring cytokine level at 1.0 uM relative to control; assay type: functional, Homo sapiens, Neuron
THP-1 [34] = experiment: Antinflammatory activity in human THP-1 cells assessed as reduction of TNF-alpha at 10 uM relative to control; assay type: functional; design: scale not given: the % may be the effect or the level left
THP-1 [35] = experiment: Antinflammatory activity in human THP-1 cells assessed as reduction of TNF-alpha at 1.0 uM relative to control; assay type: functional
[36] = molecular target: Mitogen-activated protein kinase 14 (Homo sapiens) (UniProt Q16539); experiment: Inhibition of recombinant p38alpha MAPK (unknown origin) at 10 uM preincubated for 10 mins followed by substrate addition and measured after 40 mins in the presence of ATP by ADP-Glo assay; conditions: time 60.0 min
Chain of Mitogen-activated protein kinase 14 (Homo sapiens) (Q16539 whole entry): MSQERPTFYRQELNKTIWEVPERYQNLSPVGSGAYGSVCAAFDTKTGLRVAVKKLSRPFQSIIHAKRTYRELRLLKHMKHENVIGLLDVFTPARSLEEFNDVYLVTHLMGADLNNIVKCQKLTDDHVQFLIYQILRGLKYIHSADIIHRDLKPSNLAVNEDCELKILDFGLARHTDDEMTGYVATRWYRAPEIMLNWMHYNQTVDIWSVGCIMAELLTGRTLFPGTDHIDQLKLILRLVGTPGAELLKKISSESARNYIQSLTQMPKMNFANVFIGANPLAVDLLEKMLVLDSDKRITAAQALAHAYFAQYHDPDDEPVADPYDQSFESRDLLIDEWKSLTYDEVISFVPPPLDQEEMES

[37] = molecular target: T1, c-Jun N-terminal kinase, JNK (Homo sapiens) (UniProt P45983+P53779+P45984); experiment: Inhibition of JNK (unknown origin) at 10 uM relative to control; assay type: protein assay
[38] = Drug concentration in mouse plasma at 10 mg/kg, iv administered once daily measured after 2 hrs; assay type: ADME, organism-based
[39] = Neuroprotective activity against neurons (unknown origin) assessed as rescue by measuring cytokine level at 10 uM relative to control; assay type: functional, Homo sapiens, Neuron
[40] = molecular target: T2, MAP kinase p38 (Homo sapiens) (UniProt O15264+Q15759+Q16539+P53778); experiment: Inhibition of p38 (unknown origin) at 1.0 uM relative to control; assay type: protein assay
[41] = molecular target: T1, c-Jun N-terminal kinase, JNK (Homo sapiens); experiment: Inhibition of JNK (unknown origin) at 1.0 uM relative to control; assay type: protein assay
[42] = Drug concentration in mouse brain at 10 mg/kg, iv administered once daily measured after 2 hrs; assay type: ADME, organism-based; conditions: read-out: Ct
[43] = molecular target: T2, MAP kinase p38 (Homo sapiens); experiment: Inhibition of p38 (unknown origin) at 10 uM relative to control; assay type: protein assay
Rattus norvegicus [44] = experiment: Antihypertensive activity in spontaneously hypertensive rat model assessed as change in blood pressure at 1 mg/kg, po measured after 3 hrs; assay type: functional
Rattus norvegicus [45] = experiment: Antihypertensive activity in spontaneously hypertensive rat model assessed as change in blood pressure at 1 mg/kg, po measured after 6 hrs; assay type: functional
Rattus norvegicus [46] = experiment: Antihypertensive activity in spontaneously hypertensive rat model assessed as change in heart rate at 1 umol/kg, po measured after 3 hrs; assay type: functional
Rattus norvegicus [47] = experiment: Antihypertensive activity in spontaneously hypertensive rat model assessed as change in blood pressure at 1 mg/kg, po measured after 10 hrs; assay type: functional

Nc1nonc1C(=O)N/N=C1\c2ccccc2-c2nc3nonc3nc21
EC50 (HL-60): 1200 nM
EC50 (HCT-116): 1600 nM
EC50 (A549): 800 nM

Cc1ccc(Cl)cc1Nc1cc(Cl)c2nonc2c1[N+](=O)[O-]
IC50 [1]: 10000 nM

c1ccc2c(c1)c1nc3nonc3nc1n2CCc1nn[nH]n1
EC50 (SW480): 20000 nM
EC50 (HCT-116): 31000 nM

CCCCCCN(C)CC(=O)C(CC(=O)O)NC(=O)[C@H](CC)n1cc(C(C)(C)C)nc(NCc2nonc2C)c1=O (stereo not given in full)
concentration at 6 h [2]: 5100 nM
IC50 (Caspase-3): 6 nM
half-life [3]: 3 h
Cmax [4]: 32200 nM
EC50 (NT2): 21 nM
IC50 (Caspase-1): 67 nM
IC50 (Caspase-7): 42 nM
IC50 (Caspase-8): 6480 nM
concentration at 24 h [5]: 100 nM

CS(=O)(=O)c1ccc(Oc2cc(F)cc(C#N)c2)c2c1[C@H](O)[C@H](F)[C@@H]2F [BELZUTIFAN]
IC50 [6]: 9000 nM
logD [7]: 1.2

CC1(C)Oc2ccc(C#N)cc2[C@@H](N2CCCC2=O)[C@@H]1O [LEVCROMAKALIM]
Activity (Canis familiaris [8]): -11.2%

CC1(C)Oc2cc3nonc3cc2[C@@H](N2CCCCC2=O)[C@@H]1O
Activity (Canis familiaris [9]): -7.5%
Activity (Canis familiaris [10]): 34.3%
Activity (Canis familiaris [11]): 33.3%

O=C(CNc1nonc1/C(=N/O)N[C@H]1Cc2ccc(F)cc21)NCCO
Activity (HeLa [12]): 15%
half-life [13]: 3.7 h

Cc1ccc(Cl)cc1Nc1ccc([N+](=O)[O-])c2nonc12
EC50 [14]: 1800 nM
IC50 [15]: 6300 nM

NS(=O)(=O)NCCNc1nonc1/C(=N/O)Nc1ccc(F)c(Br)c1 [EPACADOSTAT]
Activity (HeLa [16]): 50%
half-life [17]: < 0.5 h
bioavailability [18]: 11%
Activity (HeLa [19]): 56%
CLint scaled [20]: 11.7 mL/min/kg

C[C@@H](N)[C@H]1CC[C@H](C(=O)Nc2ccncc2)CC1 [Y-27632]
Activity (Rattus norvegicus [21]): -32 mmHg
Activity (Rattus norvegicus [22]): -10 mmHg
Activity (Rattus norvegicus [23]): 75 bpm
Activity (Rattus norvegicus [24]): 0 bpm
Activity (Rattus norvegicus [25]): 10 bpm
Activity (Rattus norvegicus [26]): -5 mmHg
Activity (Rattus norvegicus [27]): -10 mmHg
Activity (Rattus norvegicus [28]): -25 mmHg

O=S(=O)(c1cccc2cnccc12)N1CCCNCC1 [FASUDIL]
Activity (Rattus norvegicus [23]): -50 bpm
Activity (Rattus norvegicus [29]): -30 mmHg
Activity (Rattus norvegicus [24]): -10 bpm
IC50 (HASMC): 1300 nM
Activity (Rattus norvegicus [25]): -10 bpm
Activity (Rattus norvegicus [30]): -20 mmHg
Activity (Rattus norvegicus [31]): 0 mmHg

CCCOc1ccc(Nc2nc3nonc3nc2N2CCC(Oc3ccc(Cl)cc3)CC2)cc1
inhibition [32]: 74%
Activity [33]: 33%
Activity (THP-1 [34]): 74%
inhibition at 1 µM (THP-1 [35]): 51%
inhibition [36]: 99%
inhibition [37]: 98%
concentration at 2 h [38]: 430 nM
Activity [39]: 51%
inhibition [40]: 37%
inhibition [41]: 49%
concentration at 2 h [42]: 800 nM
inhibition [43]: 99%

CCn1c(-c2nonc2N)nc2cncc(C(=O)N3CC[C@H](N)C3)c21
Activity (Rattus norvegicus [21]): -40 mmHg
Activity (Rattus norvegicus [44]): -20 mmHg
Activity (Rattus norvegicus [24]): -25 bpm
Activity (Rattus norvegicus [45]): -20 mmHg
Activity (Rattus norvegicus [25]): -40 bpm
Activity (Rattus norvegicus [46]): 20 bpm
Activity (Rattus norvegicus [27]): -13 mmHg
Activity (Rattus norvegicus [47]): -5 mmHg
